Tests used:
Hep3B/Fluc = assay: Mouse liver cancer model, bioluminescent tumor imaging; type: in vivo, Nude mice; settings: intrahepatic Hep3B/Fluc, treatment day seven, intravenous
Procedure: Experiments were performed to evaluate Sm-153-hydroxyapatite particles (Sm-HAP) alone or in combination with PS-341, a radiosensitizer drug, in a mouse liver cancer model. Nude mice were injected intrahepatically with Hep3B/Fluc, a human hepatocellular carcinoma cell line expressing Firefly luciferase. Tumor growth was determined using a Xenogen Bioluminescent IVIS 200 Imaging System. On day seven after tumor implantation, mice were injected intravenously via the tail vein with 200 μg HAP, 0.5 mCi free Sm-153-EDTMP, 0.5 mCi Sm-HAP alone, or 0.5 mCi Sm-HAP in combination with two intraperitoneal doses of 0.5 mg/kg PS-341, the first administered one day prior to Sm-HAP administration and the second administered one day after Sm-HAP administration. […] In contrast, tumors in mice treated with the combination therapy (Sm-HAP and two doses of PS-341) regressed, as evidenced by a decrease in the signal (FIG. 7).

[1] = Labeling of preformed hydroxyapatite particles by incubation with Sm-153-EDTMP; type: physicochemical; settings: 1 mg particles with 200 μCi for up to 2 hours at room temperature
Procedure: The unlabeled, hydroxyapatite particles were incubated with Sm-153-EDTMP. Briefly, 1 mg of hydroxyapatite particles was incubated with 200 μCi of Sm-153-EDTMP for up to 2 hours at room temperature (25° C.). The resulting hydroxyapatite particles were spun down and resuspended in 10 mM Tris buffer pH 7.2. The amount of Sm-153 radioactivity in the hydroxyapatite particles was determined and found to be negligible.

[2] = In vivo biodistribution of Sm-HAP by gamma camera / microSPECT-CT imaging; settings: mice, intravenous, 200 μCi for Sm-HAP
Procedure: FIG. 1 contains photographs of the distribution of Sm-HAP uptake in mice. […] The mouse was injected intravenously with Sm-153 HA nanoparticles synthesized at 50° C. Imaging was performed 2 hours post injection.
FIG. 2 contains a photograph of the distribution of Sm-153 EDTMP determined via non-invasive imaging using a small animal gamma camera (X-SPECT).
To determine the in vivo biodistribution of Sm-HAP, 200 μCi of Sm-HAP were administered intravenously to mice in 150 to 200 μL. The mice were imaged non-invasively using a microSPECT/CT machine.

[3] = Clodronate loading on hydroxyapatite particles; type: physicochemical; settings: for binding (loading) efficiency of clodronate to HA: 20 mg clodronate per 1 mg particles, disodium salt
Procedure: Clodronate (dichloromethylenediphosphonic acid disodium salt; Sigma, St. Louis, Mo.) was dissolved in distilled water (200 mg/mL) and 20 mg was added to 1 mg of hydroxyapatite particles. The mixture was incubated for 30 minutes. After hydroxyapatite particle binding, free clodronate in the supernatant was complexed with copper (II) ions (Cu^2) in nitric acid solution and the concentration was assayed by ultraviolet spectrophotometry as described elsewhere (Ostovic et al., Pharm Res., 10:470-472 (1993)). The amount of clodronate bound to hydroxyapatite particles was calculated by subtracting free clodronate from input clodronate.
The feasibility of utilizing the HA-biphosphonate interaction for drug loading onto the particles also was tested. Twenty milligrams of clodronate, a biphosphonate, was mixed with 1 mg of hydroxyapatite particles (40 nm in size) in 10 mM Tris-Cl buffer (pH 7.2), and the mixture was incubated with continuous shaking at room temperature for 30 minutes. Clodronate could be loaded onto hydroxyapatite particles at 10% efficiency (2 mg clodronate/mg HAP; n=3). […] The clodronate that was loaded on hydroxyapatite particles remained biologically active.

Structure (SMILES)	tumor course by bioluminescent signal (Hep3B/Fluc)	amount of Sm-153 radioactivity in the hydroxyapatite particles [1]	in vivo biodistribution (uptake sites by imaging) [2]	final concentration of clodronate on HA ([3]; 40 nm HA) [mg clodronate/mg HA]	binding (loading) efficiency of clodronate to HA ([3]; 40 nm HA) [%]	binding (loading) efficiency of clodronate to HA ([3]; 40 nm HA, listed as clondronate)	clodronate loaded per mg particles ([3]; 40 nm, 10 mM Tris-Cl pH 7.2, 30 minutes, n=3) [mg clodronate/mg HAP]
O=P([O-])(O)CN(CCN(CP(=O)([O-])O)CP(=O)(O)O)CP(=O)([O-])O.[153Sm+3] [Sm-153-EDTMP]	progressed	negligible	binds to the skeleton of the mouse	–	–	–	–
O=P([O-])([O-])C(Cl)(Cl)P(=O)(O)O.[Na+].[Na+] [clodronate, dichloromethylenediphosphonic acid disodium salt]	–	–	–	2	10	about 10%	2
